Assay results: patent EP0342396A1, “Ophthalmic ointments for the treatment of glaucoma, comprising ergot alkaloids” (LEK, tovarna farmacevtskih in kemicnih izdelkov, n.sol.o., priority 1988, dated 1989)

What was measured:
glaucoma patients [1] = assay: Clinical trial: effect of ophthalmic ointment comprising 0.01 % active substance on intraocular pressure (I.O.P.); conditions: human, in vivo
Description: (§1) The clinical tests on glaucoma patients were performed with an ophthalmic ointment comprising 0.01 % and 0.025 % of dihydro­ergotoxine methanesulfonate or bromocryptine methanesulfonate.
Effect of ophthalmic ointment comprising 0.01 % of dihydroer­gotoxine methanesulfonate or bromocryptine methanesulfonate on the intraocular pressure (I.O.P.) in glaucoma patients
The effect of the ophthalmic ointment comprising 0.01 % of dihydroergotoxine (as base and as methanesulfonate salt) and of bromocryptine methanesulfonate on the intraocular pressure in both eyes was tested in five male and three female glaucoma patients aged from 34 to 62 years.

glaucoma patients [2] = conditions: human, in vivo
Description: as §1
The effect of the ophthalmic ointment comprising 0.025 % of dihydroergotoxine methanesulfonate or bromocryptine methane­sulfonate on the intraocular pressure in both eyes was tested in four male and three female glaucoma patients, agend from 31 to 64 years.
The ointment was applied into the conjunctival sac in the morning and in the evening. Before application, the I.O.P. was measured. This procedure was repeated for five days.

SMILES: CC(C)C[C@H]1C(=O)N2CCC[C@H]2[C@]2(O)O[C@](NC(=O)[C@@H]3C=C4c5cccc6[nH]c(Br)c(c56)C[C@H]4N(C)C3)(C(C)C)C(=O)N12 [bromocryptine methanesulfonate]
- maximum reduction of I.O.P. (glaucoma patients [1]): 21%
- time for which the effect (reduction of I.O.P.) was present (glaucoma patients [1]): at least five
- I.O.P. from which it decreased (glaucoma patients [2]): 4.00 kPa
- I.O.P. to which it decreased (glaucoma patients [2]): 2.67 kPa
- reduction of intraocular pressure (glaucoma patients [2]): 30%
- undesired side effects (glaucoma patients [2]): No undesired side effects
